According to PMC4701221, “Novel Promising Estrogenic Receptor Modulators: Cytotoxic and Estrogenic Activity of Benzanilides and Dithiobenzanilides” (PLoS ONE, 2016):

How the values were obtained:
[1] = target: T1, ERα W383A (Homo sapiens, UniProt P03372, W383A); experiment: Estrogen Receptor luciferase assay in HEK293 cells transfected with ERα W383A; type: cell-based; conditions: HEK293, Fig 6A
T1 construct: expressed in transfected cells; host or cells: HEK293
T1 sequence (P03372 1-595 W383A): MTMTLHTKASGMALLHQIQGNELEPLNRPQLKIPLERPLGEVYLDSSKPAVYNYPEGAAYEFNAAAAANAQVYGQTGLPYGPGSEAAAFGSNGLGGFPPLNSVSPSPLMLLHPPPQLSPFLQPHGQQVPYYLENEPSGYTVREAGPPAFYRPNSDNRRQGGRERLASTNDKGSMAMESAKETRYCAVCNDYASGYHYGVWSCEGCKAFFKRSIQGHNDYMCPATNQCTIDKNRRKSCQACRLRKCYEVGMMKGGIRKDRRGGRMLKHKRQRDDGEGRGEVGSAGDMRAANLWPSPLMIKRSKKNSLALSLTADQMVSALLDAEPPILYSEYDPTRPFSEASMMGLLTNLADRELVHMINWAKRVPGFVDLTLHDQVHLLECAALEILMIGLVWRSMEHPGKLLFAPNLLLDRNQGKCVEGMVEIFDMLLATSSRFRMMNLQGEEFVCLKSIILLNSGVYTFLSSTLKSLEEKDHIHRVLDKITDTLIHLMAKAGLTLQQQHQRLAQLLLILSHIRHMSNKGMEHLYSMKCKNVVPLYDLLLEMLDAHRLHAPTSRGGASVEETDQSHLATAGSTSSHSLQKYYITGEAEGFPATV
From the text: To obtain a eukaryotic vector expressing only the ER-α nuclear receptor, a construct was designed by cloning a KpnI-BamHI fragment from plasmid pEGFP-C1-ERα containing the ERα coding sequence that includes a stop signal into the pEGFP-N3 plasmid (Clontech Laboratories, Palo Alto, CA) under the control of the CMV promoter. […] For mock transfections, pEGFP-N3 plasmid was digested with BglII and NotI and religated after polishing DNA ends to remove GFP coding sequence. Plasmid sequence was confirmed by automatic sequencing. Prior to transfection, cells were seeded in 48 well plates at density of 1.5 x 10^4 cells/well and incubated for 24 h to reach a cell confluence of 80–90%. […] MCF-7 cells, which endogenously express ERα receptor, were transfected with p3xERRE/ERE-luciferase plus the pRLTK Renilla luciferase control plasmid (95:5). Firefly and Renilla luciferase activities were measured using the Dual Luciferase Assay System (Promega, Madison, WI, USA), following a standard protocol using a Sirius L luminometer (Berthold Technologies, Bad Wildbad, Germany). Data were expressed as relative changes in luciferase activity and normalized to 100%.
Plasmids for the expression of the ERα W383A and ER-α W383S mutated receptors were constructed by the quick change site directed mutagenesis method using plasmid pEGFP-N-ERα as template.

[2] = tested on: MCF-7 cells; experiment: LDH release assay, MCF-7; type: cell-based, human; conditions: 72 h, Fig 2
Procedure: Cytotoxicity was evaluated by measuring the cell membrane permeability, using a LDH assay kit purchased from Cayman Chemical (Ann Arbor USA). The LDH assay was performed for MCF-7 and MDA-MB-231 cells (seeded at 2×10^4 density). As a positive control cell permeabilization with 1%Triton X-100 was used. The assay was performed 72h after start the incubation. Briefly, the plates were centrifuged at 400 ×g for 5 minutes, and 100 μL of supernatant were transferred from each well to the new 96-well plate and analyzed according to the manufacturer’s protocol. 100 μL of reaction mixture, containing lactic acid, NAD^+, tetrazolium salt and diaphorase, was added to each well. Plates were incubated on an orbital shaker for 30 minutes at room temperature and the absorbance at 490 nm was measured with a plate reader (Biotek Instruments, Elx-800). Results were expressed as a percentage of the total value of the positive control.

[3] = tested on: ERα W383S transfected HEK293 cells; experiment: MTT cell viability, ERα W383S transfected HEK293 cells; type: cell-based, human; conditions: 0–100 μM, 72 h, compared to wild type ERα, Fig 6B
Procedure: Compounds were dissolved in DMSO to the final concentration of 100 μM. A549, CCD39Lu, MCF-7, MDA-MB-231 and MCF-12A cells were seeded in 96 wells plates at density 2x10^4 cells/well and incubated overnight as described above. Subsequently, cells were treated with tested compounds at concentrations: 100 μM; 50 μM; 25μM; 12.5μM; 6 μM; 3 μM; 1.5 μM. […] Cells were incubated 72 h at 37°C in a humidified atmosphere containing 5% CO2 in the cell culture media appropriate for each cell line. Then, the medium was aspirated and 170 μl MTT solution (5mg/ml) was added to each well. Plates were incubated for 2 hours at 37°C, and then plates were centrifuged at 1200 rpm for 3 minutes. […] Absorbance at 570 nm (with reference wavelenght 650 nm) was measured using a plate reader (Biotek Instruments, Elx-800). Cell viability was calculated as a percentage relative to the control.
Fig 6 Estrogenic and cytotoxic activity of tested compounds in HEK293 cells transfected with wild type ERα receptor or plasmids bearing mutated versions of ERα. […] Results are expressed as mean ± SEM (n = 8). * p < 0.05 was considered statistically significant. […] 48 h after transfection, cells were incubated in the presence of increasing concentrations of compounds 18 for 72 h and cell viability was measured by MTT assay. […]

## Fc1ccc(NC(=S)c2ccc(NC(=S)c3ccc(F)cc3)cc2)cc1 [Compound 18]
[1]
  Activation of ER dependent transcription, ERα W383A vs wild type: less active
[2]
  LDH release, MCF-7: relatively low increase
[3]
  Cell viability, ERα W383S transfected HEK293: decrease was significantly smaller
